Earlier results on one compound are cited in patent publication US10357535B2, “Daptomycin formulations and uses thereof” (priority 2012, dated 2019).

The test system of one data set is MRSA. The settings on record: in less than one hour.
The test system of the next data set is MSSA. The note with it: in less than one hour.

For `CCCCCCCCCC(=O)NC(Cc1c[nH]c2ccccc12)C(=O)NC(CC(N)=O)C(=O)NC(CC(=O)O)C(=O)NC1C(=O)NCC(=O)NC(CCCN)C(=O)NC(CC(=O)O)C(=O)NC(C)C(=O)NC(CC(=O)O)C(=O)NCC(=O)NC(CO)C(=O)NC(C(C)CC(=O)O)C(=O)NC(CC(=O)c2ccccc2N)C(=O)OC1C` (centres unmarked) [daptomycin, Daptomycin], the bacteria dead result in the data set with MRSA and in the data set on MSSA was “greater than 99.9%” each time.
